Experimental data published in PMC8563958 (Cell Research, 2021).
Where two headings read alike, the source gives them in different places.

Legend:
wild-type MC4R (WT) = target: T1, wild-type MC4R (WT) (Homo sapiens, UniProt P32245); assay type: cell-based; conditions: set as 100 %, 1 µM ligand, HEK293, 40 min 37 °C, 1 mM IBMX, 4-8 experiments in triplicates
T1 construct: expressed in transfected cells; host or cells: HEK293 (transient, vector pcDps)

MC4R H158A = target: T2, MC4R H158A (Homo sapiens, UniProt P32245, H158A); assay type: cell-based
T2 construct: expressed in transfected cells; host or cells: HEK293 (transient, vector pcDps)

[1] = ref not given, cited from earlier work
From the text: In contrast to other M ...

[2] = target: MC4R D122S, N-terminally HA-tagged (human) (UniProt P32245)
MC1R = conditions: cited from earlier work
MC4R L133 to methionine = conditions: cited from earlier work
MC4R [3] = conditions: cited from earlier work
From the text: (Fig. 1a). The binding mode of SHU9119 is generally like that of NDP-α-MSH. […] W6^3 is also clamped by H264^6.54 (TM6) and S188^EL2, and R5^2 connects TM3−TM4 and EL2 through hydrogen bonds with S188^EL2 and I185^4.61 (Fig. 2i; Supplementary information, Fig. S11 and Table S4).

MC5R = MC5R with V126; cited from earlier work
MC4R [4] = tested on: MC4R; design: method as in earlier work; conditions: ref 4 (AgRP); ref not given for MSH; cited from earlier work
[5] = target: wild-type MC4R, N-terminally HA-tagged (signalling construct) (human) (UniProt P32245)

CC(=O)N[C@@H](CCCNC(=N)N)C(=O)N[C@H]1CSSC[C@@H](C(N)=O)NC(=O)[C@H](Cc2c[nH]c3ccccc23)NC(=O)[C@H](CCCNC(=N)N)NC(=O)[C@@H](Cc2ccccc2)NC(=O)[C@H](Cc2c[nH]cn2)NC(=O)[C@@H](C)NC1=O [setmelanotide]
Emax cAMP (wild-type MC4R (WT)): 100 % of WT
maximum Gq/11 signaling (MC4R H158A): 50%
Gs signaling-related adverse effects ([1]; in contrast to other MC4R agonists): does not cause common Gs signaling-related adverse effects, such as tachycardia or hypertension
adverse effects ([1]; rare, moderate): skin hyperpigmentation

NDP-α-MSH (peptide)
EC50 of cAMP accumulation (Gs signaling), transfected HEK293 cells [2]: 9 nM

SHU9119
mode of action at MC1R (MC1R; MC1R with M128, 37 (ref 36)): partial agonist
mode of action in MC1R–Gs complex (MC1R; cryo-EM structure of active MC1R–Gs complex): acting as an agonist
mode of action at L133M mutant (MC4R L133 to methionine): reverses SHU9119 to an agonist
mode of action at MC4R (MC4R [3]; antagonism): antagonizes the MC4R
mode of action at MC5R (MC5R): partial agonist

agouti-related peptide (SSRRCVRLHESCLGQQVPCCDPCATCYCRFFNAFCYCRKLGTAMNPCSRT; UniProt O00253 83-132, looked up) [AgRP]
effect on appetite (MC4R [4]): orexigenic effects
mode of action at MC4R (MC4R [3]; reducing high levels of basal signaling activity): inverse agonist

melanotan II
mode of action at MC4R (MC4R [3]): agonizes MC4R
mode of action at MC4R (MC4R [3]; listed as melatonan II): agonistic effects

setmelanotide (peptide)
potency (EC50) of cAMP accumulation, transfected HEK293 cells [5]: 1.2 nM

β-MSH
effect on appetite (MC4R [4]): appetite-reducing effects
